Source: US8436159B2, “Glyphosate resistant class I 5-endolpyruvylshikimate-3-phosphate synthase (EPSPS)” (Monsanto Technology LLC, priority 2003, dated 2013)
Numbering of substitutions follows the chain as printed.

Columns and labels:
[1] = molecular target: T1, maize (Zea mays) class I EPSPS variant TIPA (T102I, P106A), pMON42481, ZmTIPA SEQ ID NO:39 (Zea mays, UniProt O24566, P106A/T102I); assay: EPSPS steady-state kinetics, TIPA variant; type: biochemical
T1 construct: pMON42481
T1 sequence (O24566 1-444 T102I/P106A): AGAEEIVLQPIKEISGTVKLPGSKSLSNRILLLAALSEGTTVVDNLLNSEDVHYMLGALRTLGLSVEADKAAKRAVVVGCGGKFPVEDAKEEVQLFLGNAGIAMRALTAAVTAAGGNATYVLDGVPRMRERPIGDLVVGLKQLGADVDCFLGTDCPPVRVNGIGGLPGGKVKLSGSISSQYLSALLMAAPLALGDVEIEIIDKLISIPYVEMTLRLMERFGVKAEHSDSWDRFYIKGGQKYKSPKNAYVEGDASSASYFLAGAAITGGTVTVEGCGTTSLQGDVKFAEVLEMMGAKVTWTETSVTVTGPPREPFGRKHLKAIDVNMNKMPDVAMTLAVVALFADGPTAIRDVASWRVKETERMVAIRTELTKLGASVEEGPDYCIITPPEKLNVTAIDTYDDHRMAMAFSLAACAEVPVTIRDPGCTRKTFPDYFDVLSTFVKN
Source text: (§1) The double variants of the present invention were made using pMON58452 (FIG. 5) as the template. This pMON58452 EPSPS gene template contains the maize EPSPS double variant T102I, P106T (TIPT) that was constructed by mutagenesis of pMON70467 with the mutagenesis primers mEmut-9-U and mEmut-10-L. The various mutagenesis primer sequences were designed and then were synthesized by Invitrogen Corp., Custom Primers and used in combination in a PCR to create the variant EPSPS coding sequences. The PCR was set up in a 50 μl reaction in the following manner: dH2O 38 μl; 2 mM dNTP 1 μL; 10× buffer 5 μL; pMON58452 1 μL (10 ng); primer-U 2 μL; primer-L 2 μL; pfu Turbo enzyme 1 μL. PCR was carried out on a MJ Research PTC-200 thermal cycler using the following program: Step 1—94° C. for 30 seconds; Step 2—94° C. for 30 seconds; Step 3—55° C. for 1 minute; Step 4—68° C. for 14 minute; Step 5—go to step 2, 16 times; Step 6—End. At the end of the PCR, 1 μl of the restriction enzyme DpnI was added to each 50 μl of PCR reaction and the mixture was incubated at 37° C. for 1 hour. […]

[2] = molecular target: T2, maize (Zea mays) class I EPSPS variant TIPV (T102I, P106V), pMON42482 (Zea mays, UniProt O24566, P106V/T102I); assay: EPSPS steady-state kinetics, TIPV variant; type: biochemical
T2 construct: pMON42482
T2 sequence (O24566 1-444 T102I/P106V): T1 sequence (O24566 1-444 T102I/P106A) with A106V
Source text: as §1

Compound `O=C(O)CNCP(=O)(O)O` [glyphosate, N-phosphonomethylglycine] has a Ki [1] of 148 ± 18.3 µM and a Ki [2] of 1600 ± 400 µM.
